The values below come from patent US8940909B2, “Indicator platform” (Biosynth AG, priority 2009, dated 2015).

Data set [1] relates to enteric bacterial cells. Nature of the data set: MDAB staining of bacterial colonies with indicators I4a and I5a on Tryptic Soy Agar, aerobic and anaerobic. Type of data set: cell-based. The settings on record: for colonial morphology, aerobic conditions / colonial morphology, microaerobic (anaerobic) conditions: Salmonella manhattan (b-gal −), TSAYE with 40 mg/100 ml of indicator. As for the experimental part: Tryptic Soy Agar (TSA) with yeast extract (0.6%) was used as the base plating medium. The media were autoclaved at 121° C. for 15 minutes and placed in a 50° C. water bath to cool. Indicators were added to the basal medium at a final concentration of 40 mg/100 ml (from 80 mg/ml stock solutions in DMF). Over night cultures of enteric bacterial cells in Brain Heart Infusion Broth were streaked onto the plates and incubated at 35° C. for 24 hours under aerobic and anaerobic conditions. After incubation, the colonial morphologies on the plates were recorded (Table III).
Weak staining was observed occasionally due to residual oxygen (micro-anaerobic conditions). Under aerobic conditions indigo (IN-stains) generally dominated the effects of MDAB staining. For example indicator system I4a/MDAB stained colonies violet under anaerobic but indigo blue under aerobic conditions.

The nature of data set [2]: Reaction of MDAB with active signalogens (aldol donor properties). The settings on record: for Aldol product / color formed with MDAB: presence of MDAB, absence of oxygen.
Data set [3] deals with Bacillus subtilis 65. Nature of the data set: IO staining of colonies of beta-D-galactosidase positive/negative bacteria (Table IVb). It is filed as cell-based. The following applies: Bacillus subtilis strain 65, b-gal −; 24 h on Nutrient Agar, 150 mg/l indicator, 100 mg/l IPTG.
For data set [4], the system named is Escherichia coli 61. The description is as above. Type of data set: cell-based. The following applies: Escherichia coli strain 61, b-gal +; 24 h on Nutrient Agar, 150 mg/l indicator, 100 mg/l IPTG.
In data set [5] the test system is Salmonella enteritidis 43. Described as above. Type of data set: cell-based. The following applies: Salmonella enteritidis strain 43, b-gal −; 24 h on Nutrient Agar, 150 mg/l indicator, 100 mg/l IPTG.
For data set [6], the system named is Salmonella illa 73. Described as above. The following applies: Salmonella illa strain 73, b-gal +; 24 h on Nutrient Agar, 150 mg/l indicator, 100 mg/l IPTG. Type of data set: cell-based.
Data set [7] deals with Enterobacter cloacae 245. Described as above. It is filed as cell-based. The settings on record: Enterobacter cloacae strain 245, b-gal +; 24 h on Nutrient Agar, 150 mg/l indicator, 100 mg/l IPTG.
Data set [8] relates to Staphylococcus saprophyticus 273. Described as above. It is filed as cell-based. The following applies: Staphylococcus saprophyticus strain 273, b-gal +; 24 h on Nutrient Agar, 150 mg/l indicator, 100 mg/l IPTG.
The subject of data set [9] is Enterobacter aerogenes 242. The description is as above. It is filed as cell-based. The settings on record: Enterobacter aerogenes strain 242, b-gal +; 24 h on Nutrient Agar, 150 mg/l indicator, 100 mg/l IPTG.
The test system of data set [10] is Salmonella bongori 81. The data set is described as above. Type of data set: cell-based. The following applies: Salmonella bongori strain 81, b-gal +; 24 h on Nutrient Agar, 150 mg/l indicator, 100 mg/l IPTG.
Data set [11] deals with Serratia marcescens 40. Described as above. It is filed as cell-based. The following applies: Serratia marcescens strain 40, b-gal +; 24 h on Nutrient Agar, 150 mg/l indicator, 100 mg/l IPTG.
Data set [12] deals with Shigella boydii 135. The data set is described as above. Type of data set: cell-based. The following applies: Shigella boydii strain 135, b-gal −; 24 h on Nutrient Agar, 150 mg/l indicator, 100 mg/l IPTG.
Data set [13] concerns Shigella dysenteriae Serovar 1 131. The data set is described as above. Type of data set: cell-based. The following applies: Shigella dysenteriae Serovar 1 strain 131, b-gal +/−; 24 h on Nutrient Agar, 150 mg/l indicator, 100 mg/l IPTG.
Data set [14] concerns Escherichia coli 270. The description is as above. It is filed as cell-based. The following applies: Escherichia coli strain 270, b-gal +; 24 h on Nutrient Agar, 150 mg/l indicator, 100 mg/l IPTG.
The subject of data set [15] is Klebsiella pneumoniae 164. The data set is described as above. It is filed as cell-based. The settings on record: Klebsiella pneumoniae strain 164, b-gal +; 24 h on Nutrient Agar, 150 mg/l indicator, 100 mg/l IPTG.
Data set [16] deals with Citrobacter freundii 181. The data set is described as above. The following applies: Citrobacter freundii strain 181, b-gal +; 24 h on Nutrient Agar, 150 mg/l indicator, 100 mg/l IPTG. It is filed as cell-based.
Data set [17] has as its system Staphylococcus intermedius 31. The description is as above. It is filed as cell-based. The settings on record: Staphylococcus intermedius strain 31, b-gal +; 24 h on Nutrient Agar, 150 mg/l indicator, 100 mg/l IPTG.
The test system of data set [18] is Shigella sonnei 133. The description is as above. Type of data set: cell-based. The settings on record: Shigella sonnei strain 133, b-gal +/−; 24 h on Nutrient Agar, 150 mg/l indicator, 100 mg/l IPTG.
For data set [19], the system named is Yersinia enterocolitica 175. The description is as above. Type of data set: cell-based. The settings on record: Yersinia enterocolitica strain 175, b-gal +/−; 24 h on Nutrient Agar, 150 mg/l indicator, 100 mg/l IPTG.
In data set [20] the test system is Escherichia coli (O157:H7) 60. The description is as above. Type of data set: cell-based. The following applies: Escherichia coli (O157:H7) strain 60, b-gal +; 24 h on Nutrient Agar, 150 mg/l indicator, 100 mg/l IPTG.
Data set [21] deals with Staphylococcus aureus 2. The description is as above. Type of data set: cell-based. The following applies: Staphylococcus aureus strain 2, b-gal −, 24 h on Nutrient Agar, 150 mg/l indicator, 100 mg/l IPTG.
Data set [22] concerns Listeria monocytogenes (4b) 290. The description is as above. It is filed as cell-based. The settings on record: Listeria monocytogenes (4b) strain 290, b-gal −; 24 h on Nutrient Agar, 150 mg/l indicator, 100 mg/l IPTG.
Data set [23] has as its system Escherichia coli. Nature of the data set: IN and IO staining of bacterial colonies under anaerobic conditions. It is filed as cell-based. The following applies: Nutrient Agar plates, anaerobically incubated with E. coli. Here is the method:
Nutrient Agar plates containing 150 mg/l of various substrates and 100 mg/l IPTG were inoculated with Escherichia coli. Plates were put in an anaerobic jar (Anaerojar, Oxoid), an AnaeroGen sachet (Oxoid) was added, the jar was closed and incubated for 24 hours at 37° C.
IN staining cannot be used under anaerobic conditions.

Data set [24] concerns Pseudomonas aeruginosa 168. Description: IO staining of colonies of beta-D-galactosidase positive/negative bacteria (Table IVb). It is filed as cell-based. The following applies: Pseudomonas aeruginosa strain 168, b-gal −, 24 h on Nutrient Agar, 150 mg/l indicator, 100 mg/l IPTG.
In data set [25] the test system is Streptococcus agalactiae 195. The data set is described as above. The following applies: Streptococcus agalactiae strain 195, b-gal −; 24 h on Nutrient Agar, 150 mg/l indicator, 100 mg/l IPTG. Type of data set: cell-based.
The test system of data set [26] is Aeromonas hydrophila 292. The description is as above. The following applies: Aeromonas hydrophila strain 292, b-gal +; 24 h on Nutrient Agar, 150 mg/l indicator, 100 mg/l IPTG. Type of data set: cell-based.

With “5-Bromo-6-chloro-1H-indol-3-yl-beta-D-galactopyranoside [Indicator I5a]”, in data set [1] (aR MDAB, equivalents 1:1), the “colonial morphology, aerobic conditions” value is reported as “Cream colored colonies” and the “colonial morphology, microaerobic (anaerobic) conditions” value was “Cream colored colonies”. In [1] (no aR), the “colonial morphology, aerobic conditions” value is “Cream colored colonies” and the “colonial morphology, microaerobic (anaerobic) conditions” value is given as “Cream colored colonies”.
With `COc1cc(N(C)C)ccc1C=O` [MDAB, 2-methoxy-4-(N,N-dimethylamino)benzaldehyde], in [1] (Indox/MDAB staining of microbial colonies), the “Toxic effect on microbial cell growth” value is “no toxic effect”.
For the compound `Oc1c[nH]c2cc(Cl)c(Br)cc12` [aS5, 5-Bromo-6-chloro-1H-indol-3-ol], the “Efficiency as aldol donor with MDAB” value in data set [2] (compared with 6-chloro-1H-indol-3-ol (aS3)) is given as “far more effective”.
As for `Nc1c[nH]c2ccccc12` [aS6, 1H-Indol-3-amine], the “Aldol product / color formed with MDAB” value in [2] is “Formation of the expected hetero aldol product was not observed”; in data set [2] (listed as 3-aminoindole) it was “failed to yield any aldol product”.
On to `Cn1cccc1C(=O)c1ccccc1-n1cc(O[C@@H]2O[C@H](CO)[C@H](O)[C@H](O)[C@H]2O)c2ccc(Cl)cc21` [Indicator I31a, 6-Chloro-1-[2-(N-methylpyrrole-2-carbonyl)phenyl]-1H-indol-3-yl-beta-D-galactopyranoside], for which the “C: Color of colonies” value in [3] is reported as “−”; in [4] it was “+”; in data set [5], “−”; in data set [6], “−”; in data set [7], “+”; in [8], “+”. Besides, the “C: Color of colonies” value in data set [9] is “+”; in data set [10], “+/−”; in data set [11], “+”; in data set [12] it was “−”; in data set [13], “−”; in data set [14], “+”. Also, the “C: Color of colonies” value in [15] was “+”; in [16], “+”; in data set [17], “+”; in data set [18], “+”; in [19], “+/−”; in data set [20], “+”. The “C: Color of colonies” value in [21] (footnote 2: S. aureus natural color) is on record as “−”; in data set [22], “−”; in data set [23], “o-r”; in data set [24], “−”; in [25], “−”; in data set [26], “+”. The “F: Fluorescence of colonies” value in data set [3] is on record as “−”; in data set [4], “+/−”; in data set [5] it was “−”; in [6] it was “−”; in [7], “+/−”; in data set [8], “−”. The “F: Fluorescence of colonies” value was “+/−” in data set [9]; “−” in [10]; “−” in [11]; “−” in data set [12]; “−” in [13]; “+/−” in data set [14]. Besides, the “F: Fluorescence of colonies” value in data set [15] was “+/−”; in data set [16], “+/−”; in [17] it was “−”; in [18] it was “+/−”; in data set [19] it was “−”; in data set [20], “+/−”. Besides, the “F: Fluorescence of colonies” value in data set [21], in [22], in data set [24] (footnote 1: blue autofluorescence), in data set [25] and in [26] was “−” throughout. The “G: Growth of colonies” value in data set [3], in data set [4], in [5], in data set [6], in data set [7] and in [8] was “+” throughout. Also, the “G: Growth of colonies” value in data set [9], in data set [10], in data set [11], in data set [12], in [13] and in [14] was “+” in each case. Besides, the “G: Growth of colonies” value in data set [15], in data set [16], in [17], in data set [18], in [19] and in data set [20] was “+” in each case. For the same compound, the “G: Growth of colonies” value in data set [21] is “+”; in data set [22] it was “+/−”; in [23] it was “+”; in data set [24], “+”; in data set [25], “+/−”; in data set [26], “+”. Further, the “D: Diffusion around colonies” value in data set [23] was “+”. Moreover, the “I: Intensity of color” value in data set [23] is recorded as “+”. For the same compound, the “L: Localization on colonies” value in data set [23] is recorded as “+/−”. Further, the “S: Size of colonies” value in data set [23] came out at 0.8 mm.
For `CN(C)c1ccc(C=O)cc1` [DAB, 4-(N,N-Dimethyl)aminobenzaldehyde], the “Formation of BI-stains when used to replace MDAB” value in [1] (all conditions tested) is listed as “did not produce any BI-stains”.
